Measurements published in ChEMBL document CHEMBL3988181, “GlaxoSmithKline Published Kinase Inhibitor Set 2 Onchocerca lienalis Screening Data”.

assay: GSK PKIS2: Screen against O. lienalis microfilariae, single point, at 3.1uM to assess reduction in motility. Compounds were also tested for cytotoxicity against Rhesus Monkey LLCMK2 cells.; type: functional, Onchocerca lienalis, LLC-MK2; conditions: CELL_LINE LLCMK2; CELL_SUPPLIER ECACC; CONC 3.1 uM; ORGANISM_SUPPLIER Extracted from peri-umbilical skin obtained from naturally infected cattle in the UK; temperature 37 degree C

Row | SMILES | MOTILITY REDUCTION/CYTOTOXICITY [%]
1 | O=C(Nc1[nH]nc2cc(-c3cccc(F)c3F)ccc12)C1CC1 | 0
2 | CSc1nccc(-c2c(-c3ccc(F)cc3)ncn2CCCN2CCOCC2)n1 | 33.4
3 | C[C@@H](Oc1cc(-n2cnc3cc(-c4ccncc4)ccc32)sc1C(N)=O)c1ccccc1Cl | 0
4 | CSc1ccc(-c2nc3n(c2-c2ccncc2)CCC3)cc1 | 0
5 | COc1nccc(-c2c(-c3ccc(F)cc3)ncn2CCCN2CCOCC2)n1 | 0
6 | Oc1ccc2ncnc(Nc3ccc(OCc4ccccc4)cc3)c2c1 | 100
7 | COc1ccccc1C1=C(Nc2ccc(O)c(Cl)c2)C(=O)NC1=O | 0
8 | CN1C(=O)C(Nc2ccccc2)=C(c2ccccc2)C1=O | 13.4
9 | O=C1NC(=O)C(c2ccc(Cl)cc2)=C1Nc1ccccc1 | 33.4
10 | CC(=O)N1CCN(c2ccc(Nc3nccc(-c4sc(C(C)C)nc4-c4cccc(NS(=O)(=O)c5cccc(Cl)c5)c4)n3)cn2)CC1 | 0
11 | Cc1ccc(NC(=O)Nc2cc(C(C)(C)C)nn2-c2ccccc2)cc1 | 0
12 | Clc1ccc(-c2nn3ncccc3c2-c2ccnc(Nc3ccc4c(c3)OCCO4)n2)cc1 | 0
13 | FC(F)(F)c1cc(Nc2nccc(-c3c(-c4ccc(Cl)cc4)nn4ncccc34)n2)ccc1Cl | 20
14 | Cc1cccc2c(-c3ccncn3)c(-c3ccc(F)cc3)nn12 | 13.4
15 | CN1CCN(CCCNc2nccc(-c3c(-c4ccc(F)cc4)nn4cc(C(F)(F)F)ccc34)n2)CC1 | 0
16 | O=c1cc(N2CCOCC2)nc2n(Cc3cccc4ccccc34)ccn12 | 0
17 | O=c1cc(N2CCOCC2)nc2n(Cc3cccc(Cl)c3)ccn12 | 0
18 | Cc1c(Cn2c3ccccc3n3c(=O)cc(N4CCOCC4)nc23)cccc1C(F)(F)F | 0
19 | COc1ccc(-c2oc3ncnc(N)c3c2-c2ccc(OC)cc2)cc1 | 20
20 | Cc1ccc(NC(=O)c2cccc(N3CCCCC3)c2)cc1-c1ccc(C(=O)NCC2CC2)cc1 | 20
21 | Cc1c(Cn2c(C)nn3c(=O)cc(N4CCOC(C)C4)nc23)cccc1C(F)(F)F (stereo unspecified) | 0
22 | c1ccc(-c2n[nH]cc2-c2ccnc(-c3ccc(CN4CCOCC4)cc3)c2)nc1 | 40

Row | SMILES | MOTILITY REDUCTION/CYTOTOXICITY [%]
23 | Cn1cc(-c2ccc3c(c2)CCN3C(=O)Cc2cccc(C(F)(F)F)c2)c2c(N)ncnc21 | 0
24 | O=C(Nc1ccc(Oc2ccc3[nH]c(NC(=O)c4ccco4)nc3c2)cc1)Nc1cc(C(F)(F)F)ccc1F | 0
25 | Nc1n[nH]c2ncc(-c3ccccc3)cc12 | 0
26 | O=C(Nc1n[nH]c2nc(-c3ccccc3)c(Cl)cc12)C1CC1 | 0
27 | Cc1nnc(-c2ccc(C)c(-c3ccc(C(=O)O)cc3)c2)o1 | 33.4
28 | O=C(Nc1[nH]nc2cc(-c3ccccc3F)ccc12)C1CC1 | 0
29 | CC(C)(C)n1cnc2c(N)ncnc21 | 0
30 | O=C1NC(=O)C(c2ccc(Cl)cc2)=C1Nc1cccc(C(=O)O)c1 | 0
31 | CN(C1=C(c2ccccc2)C(=O)NC1=O)c1ccccc1 | 0
32 | Oc1cc(-c2nc(-c3ccccc3)[nH]c2-c2ccncc2)ccc1Cl | 0
33 | O=C(c1ccc(-c2cc(-c3c[nH]nc3-c3ccccn3)ccn2)cc1)N1CCCC1 | 0
34 | COc1ccc(-c2nc3n(c2-c2ccncc2)CCC3)cc1 | 0
35 | Cc1nn2c(=O)cc(N3CCO[C@H](C)C3)nc2n1Cc1cccc(Cl)c1Cl | 33.4
36 | O=C(Nc1n[nH]c2nc(-c3ccc(O)cc3)ccc12)C1CC1 | 33.4
37 | CCCC(=O)Nc1n[nH]c2ncccc12 | 20
38 | O=C(Nc1n[nH]c2nc(-c3cccc(O)c3)ccc12)C1CC1 | 0
39 | Cc1cc(C)cc(Oc2nccc(-c3c(-c4ccc(F)cc4)ncn3C3CCNCC3)n2)c1 | 20
40 | O=C(c1ccc(-c2cc(-c3c[nH]nc3-c3ccccn3)ccn2)cc1)N1CCOCC1 | 0
41 | NCCCC(NC(=O)c1cc(Br)c(-c2ccnc3[nH]ccc23)s1)c1ccccc1 (stereo unspecified) | 0
42 | O=c1[nH]ccc2nc(N[C@@H]3CCCNC3)nc(Nc3ccc(S(=O)(=O)N4CCOCC4)cc3)c12 | 46.7
43 | N#CCc1ccc(Nc2nccc(Nc3ccc(Oc4ccccc4)cc3)n2)cc1 | 20
44 | CC(C)(C)c1ccc2nccc(Nc3cccc(O)c3)c2c1 | 100

Row | SMILES | MOTILITY REDUCTION/CYTOTOXICITY [%]
45 | Fc1cc(Cl)ccc1Nc1ccnc2cc(-c3ccc(CN4CCOCC4)o3)ccc12 | 0
46 | COc1ccc(Nc2nccc(N3CCC(NC(=O)C(C)c4ccc(Cl)cc4)C3)n2)cc1 (stereo unspecified) | 33.4
47 | CN(C)S(=O)(=O)c1cc(-c2ccc3nccc(-c4cccc(S(N)(=O)=O)c4)c3c2)cnc1N | 60
48 | Cc1ccc(NC(=O)c2cccc(C#N)c2)cc1-c1ccc(C(=O)Nc2ccncc2)cc1 | 73.4
49 | NC(=O)c1cccc(Nc2nccc(Nc3ccc(Oc4c(Cl)cccc4Cl)c(Cl)c3)n2)c1 | 0
50 | NS(=O)(=O)c1cccc(-c2ccc3nccc(-c4cccc(S(N)(=O)=O)c4)c3c2)c1 | 0
51 | COc1ccc(Nc2ncc(C#N)c(Nc3ccccc3C(N)=O)n2)cc1N1CCN(C)CC1 | 13.4
52 | COc1ccc(Nc2nccc(N3CCC(NS(=O)(=O)c4ccc(NC(C)=O)cc4)C3)n2)cc1 (stereo unspecified) | 33.4
53 | CC(C)c1ccc(O)cc1Nc1ccnc2ccc(C(F)(F)F)cc12 | 33.4
54 | Cc1ccc(-c2nc(Nc3ccncc3)c3ccccc3n2)s1 | 0
55 | CN(C)CCOc1ccc(-c2cc(-c3ccc(Cl)c(O)c3)c(-c3ccncc3)[nH]2)cc1 | 0
56 | Cc1cc(Nc2nc(-c3cccc(C)n3)nc3ccccc23)ccn1 | 0
57 | Cc1cccc(-c2nc(Nc3ccc4nn[nH]c4c3)c3ccccc3n2)n1 | 20
58 | O=C(Nc1cccc(-c2nn3ccccc3c2-c2ccnc(Nc3cccc(F)c3)n2)c1)c1c(F)ccc(F)c1Cl | 0
59 | O=C(Nc1cccc(-c2nn3ncccc3c2-c2ccnc(Nc3cccnc3)n2)c1)c1c(F)cccc1F | 0
60 | O=C(Nc1cccc(-c2nn3ccccc3c2-c2ccnc(Nc3cccc(C(F)(F)F)c3)n2)c1)c1c(F)cccc1F | 26.7
61 | COc1cccc(CNC(=O)NC2CCN(c3ccnc(Nc4ccc(F)cc4)n3)C2)c1 (stereo unspecified) | 33.4
62 | COc1ccc(Nc2nccc(NCCNC(=O)Nc3cc(C)ccc3C)n2)cc1 | 33.4
63 | COc1cc(Nc2nccc(N3CCC(NC(=O)Nc4cc(C)ccc4C)C3)n2)cc(OC)c1OC (stereo unspecified) | 0
64 | Cc1occc1-c1nc(N)c(OC[C@@H](N)Cc2c[nH]c3ccccc23)cc1-c1cc2c(C)n[nH]c2cn1 | 0
65 | Fc1ccc(-c2nc[nH]c2-c2ccncc2)cc1 | 0
66 | Nc1nccc(-c2c(-c3ccc(F)cc3)ncn2C2CCN(CC(F)(F)F)CC2)n1 | 0
